The results in this text go back to BindingDB's records for doi:10.1016/j.chembiol.2010.06.007 (Stanford School of Medicine, 2010).

Structures are written as SMILES.

In this assay the target is Dipeptidyl aminopeptidase 1 (Plasmodium falciparum). The assay can be described thus: DPAP1 inhibtion was measured using DPAP1-specific fluorogenic assay. IC50 DPAP1 were determined after 30 min incubation of parasite lysates with 5 nM to 100 mM inhibitor. ki values were obtained by fitting the data to Equation 1.

`CCCCC(C(=O)COc1c(F)c(F)cc(F)c1F)n1cc(C(C)(N)CCC)nn1` (configuration not stated) [ML4123] displayed an IC50 of 410 nM. The molecule `CCCCC(C(=O)COc1c(F)c(F)cc(F)c1F)n1cc(C(N)(CCC)CCC)nn1` (configuration not stated) [ML4124] returned an IC50 of 700 nM.

Regarding `CCCCC(C(=O)COc1c(F)c(F)cc(F)c1F)n1cc(C(C)N)nn1` (configuration not stated) [ML4057], the IC50 was 700 nM. In turn, `CCCCC(C(=O)COC(=O)c1c(C)cccc1C)n1cc(C2(N)CCCCC2)nn1` (configuration not stated) [ML4091] gave an IC50 of 11000 nM. For `CCCCC(C(=O)COc1c(F)c(F)cc(F)c1F)n1cc(C(CCC)(CCC)NC)nn1` (configuration not stated) [ML5004] the value was 7700 nM; for `CCCCC(C(=O)COc1c(F)c(F)cc(F)c1F)n1cc(C(C)(C)N)nn1` (configuration not stated) [ML4066], 1100 nM. `CCCCC(C(=O)COc1c(F)c(F)cc(F)c1F)n1cc(C(C)(N)Cc2ccccc2)nn1` (configuration not stated) [ML4053]: the IC50 was greater than 100000 nM. In the case of `CCCCC(C(=O)COc1c(F)c(F)cc(F)c1F)n1cc(C2(C)CCCN2)nn1` (configuration not stated) [ML6076], half-maximal inhibition (IC50) was put at 420 nM. The molecule `CCCCC(C(=O)COc1c(F)c(F)cc(F)c1F)n1cc([C@](C)(N)C2CCCCC2)nn1` (some centres not stated) [ML4046B] came in with a 50% inhibitory concentration (IC50) greater than 20000 nM. Molecule `CCCCC(C(=O)COc1c(F)c(F)cc(F)c1F)n1cc(C2(N)CCN(C(N)=O)CC2)nn1` (configuration not stated) [ML4154] gave an IC50 greater than 20000 nM. The molecule `CCCCC(C(=O)COc1c(F)c(F)cc(F)c1F)n1cc(C(N)Cc2ccccc2)nn1` (configuration not stated) [ML4068] yielded an IC50 of 74000 nM. On to `CCCCC(C(=O)COc1c(F)c(F)cc(F)c1F)n1cc(C2(N)CCCCC2)nn1` (configuration not stated) [HN3019], for which the IC50 was 560 nM. Regarding `CCCCC(C(=O)COc1c(F)c(F)cc(F)c1F)n1cc([C@@](C)(N)C2CCCCC2)nn1` (some centres not stated) [ML4046A], the half-maximal inhibitory concentration (IC50) came out at 700 nM. Molecule `CCCCC(C(=O)COc1c(F)c(F)cc(F)c1F)n1cc(C(N)(CC)CC)nn1` (configuration not stated) [ML4161] yielded an IC50 of 410 nM. In turn, `CCCCC(C(=O)COc1c(F)c(F)cc(F)c1F)n1cc(C2(N)CCN(C(C)=O)CC2)nn1` (configuration not stated) [ML4163] showed an IC50 greater than 20000 nM. Consider `CCCCC(C(=O)COc1c(F)c(F)cc(F)c1F)n1cc(C2(N)CCNCC2)nn1` (configuration not stated) [ML4162], for which the IC50 was greater than 20000 nM. The molecule `CCCCC(C#N)n1cc(C2(N)CCCCC2)nn1` (configuration not stated) [ML4101] had an IC50 greater than 100000 nM.

As usually defined, the IC50 is the point on the concentration scale where inhibition reaches its midpoint.
